US4024280A, “Abietanilides, their production and use” (Nippon Shinyaku Co., Ltd., priority 1974, dated 1977)

Tested on: cholesterol concentration in the blood
Experiment: Blood cholesterol reduction in rats fed a cholesterol/sodium cholate diet
Type: in vivo
Conditions: male rats, diet with 1% cholesterol and 0.25% sodium cholate for 3 days, control group = 0, normal group = 100
Method: A completely synthetic diet containing 1% of cholesterol, 0.25% of sodium cholate and 0.003%, 0.01%, 0.03% and 0.1% of the test compound is given to a group of 6 male rats having a body weight of about 50 g consecutively for 3 days, and the rats are fasted overnight. Then, the rats are decapitated and their blood collected to determine the cholesterol concentration in the blood. The concentration of cholesterol in the blood is measured with Technicon Autoanalyzer (Technicon Laboratory: Method File N-24a).
Each value shown in the Table is a relative value determined based on the supposition that the value of the control group (the cholesterol-administered group) is 0 and the value of the normal group (the non-cholesterol-administered group) is 100.

With `CC(C)C1CCC2=C(CCC3C(C)(C(=O)Nc4ccccc4)CCCC23C)C1` (stereo not shown) [Δ^8 -Dihydroabietanilide] the “% Inhibition” value (dose in diet 0.003%) was 18%, the “% Inhibition” value (dose in diet 0.01%) was 22% and the “% Inhibition” value (dose in diet 0.03%, * significant at 1% level) was 56%. For the same molecule, the “% Inhibition” value (dose in diet 0.1%, * significant at 1% level) was 93%.
